Here are results for two compounds from patent US10399968B2, “Hydroxyalkyl thiadiazole derivatives” (Daiichi Sankyo Company, Limited, priority 2015, dated 2019).

Structures are written as SMILES. Converted amounts (≈) assume the structure as drawn. Read-outs that look alike come from different tables or passages of the source.

Data set [1] deals with N. gonorrhoeae clinical isolates. Put plainly: Susceptibility of N. gonorrhoeae, agar dilution MIC. Type of data set: cell-based. As for the experimental part: The antibacterial activity of the compounds of the present invention against N. gonorrhoeae clinical isolates was tested by the agar dilution method [Clinical and Laboratory Standards Institute, 2016]. The test strains were spread on chocolate agar plates and grown for 20-24 h at 36° C. in 5% carbon dioxide. The test compound dilutions were prepared with broth and agar MIC plates were prepared using GC agar base supplemented with haemoglobin and 1% IsoVitaleX plates. As growth control plates not containing the test compound were also prepared. Colonies grown on plates were suspended with broth to adjust the turbidity to 0.5 McFarland using a densitometer. Suspension (1-2 μL) of the test strains was inoculated onto each agar surface by using a bacterial suspension inoculation apparatus (multipoint inoculator). After aerobic incubation for 20-24 h at 36° C. in 5% carbon dioxide, absence and presence of growth of each strain on growth control plates and test compounds plate were examined with unaided eye. The MIC was determined at which a marked reduction occurs in the appearance of growth on the test plate as compared to that of growth on the aerobic control plates.

Data set [2] addresses Clostridium difficile DNA gyrase (Clostridioides difficile, UniProt Q18C89). Put plainly: DNA supercoiling inhibition assay. The format is biochemical. The settings on record: supercoiling of relaxed pBR322 DNA, 60 minutes at 37° C. As for the experimental part: DNA supercoiling assays (30 μL reaction) were performed in a buffer containing 15 mM Tris-HCl pH 7.5, 13% glycerol, 6 mM MgCl2, 0.1 mg/mL BSA, 70 mM KCl, 1 mM dithioerythritol, 400 ng of DNA substrate (relaxed pBR322 DNA) and different concentrations of test compounds and/or standards. The dilutions of test compounds and standards were prepared in 20% dimethylsulfoxide (DMSO) and added 3 μL/reaction. The reaction was started by adding 2 μL amounts of Clostridium difficile DNA gyrase into the reaction mixtures and reactions were allowed to proceed for 60 minutes at 37° C. A reaction was carried out by adding 3 μL of 20% DMSO instead of test compound as full reaction control, and another reaction was carried out by adding sterile water instead of the enzyme as no reaction control.
Reactions were stopped by the addition of 5 μL of 6×loading dye and were analyzed by electrophoresis through 1.0% agarose gels with 1×TAE running buffer. Gels were run at 60 V for 3 hours, stained with EtBr, and visualized by Gel Doc system (BioRad). Intensity of the supercoiled DNA bands was quantified, and the IC50 of Clostridium difficile DNA gyrase was calculated using Graph Pad Prism.

Data set [3] has as its system S. aureus ATCC 29213. As to the kind of experiment: Susceptibility of bacteria, broth microdilution MIC. The format is cell-based. To be noted: Staphylococcus aureus, ATCC29213. As for the experimental part: The antibacterial activity of the compounds of the present invention was tested by the broth microdilution method. The assay was carried out according to the CLSI guidelines for managing the procedures of susceptibility tests: “M7-A7 Methods for Dilution Antimicrobial Susceptibility Tests for Bacteria That Grow Aerobically; Approved Standard-Seventh Edition (2006)”. Test strains were grown on appropriate agar plates overnight. A broth containing the test compound diluted serially 2-fold and diluents were dispensed at 100 μL to each well of a 96-well microplate. As a growth control, a well with a broth not containing the test compound was also prepared. Colonies grown on the plates were suspended in saline, adjusted to 0.5 McFarland (OD625=0.08 to 0.10) using a colorimeter, and then diluted 10-fold with saline. The bacterial suspension was inoculated at 4 μL into each well of the microplate using a bacterial suspension inoculation apparatus. The inoculated microplate was incubated at 35° C. overnight (about 20 hours). The growth condition was observed by the naked eye, and the minimum concentration to inhibit bacterial proliferation was defined as a minimum inhibitory concentration (MIC). The MICs of compounds disclosed herein for E. faecium, Streptococcus pneumoniae and Haemophilus influenzae are shown in Table 2, while for S. aureus in Table 3.

The test system of data set [4] is Clostridium difficile 2009155, a NAP1/027 strain. Put plainly: Hamster CDI model. Type of data set: in vivo. To be noted: 0.3 mg/kg/day by oral route, 5 days. As for the experimental part: The in vivo efficacy of test compounds were evaluated in a hamster CDI model caused by Clostridium difficile 2009155, a NAP1/027 strain. Syrine hamsters (6-8-weeks old) were primed with a single subcutaneous injection of clindamycin (30 mg/kg) 1-5 days prior to infection. Hamsters were infected by oral gavage with 1 ml of spore suspension ([…]) prepared in PBS. The drug was administered to the hamsters 6 hours post infection by oral or subcutaneous route at an interval of 24 hours for 5 days. The death and survival of the non-treated group and the drug-administered group were recorded once daily for 35 days.

The test system of data set [5] is Clostridium difficile ATCC 43255. As to the kind of experiment: Susceptibility of Clostridium difficile, agar dilution MIC. Type of data set: cell-based. The settings on record: Clostridioides difficile, ATCC43255, anaerobic. As for the experimental part: The antibacterial activity of the compounds of the present invention against Clostridium difficile clinical isolates was tested by the agar dilution method. The assay was carried out according to the CLSI guidelines for managing the procedures of susceptibility tests “M11-A8, Methods for Antimicrobial Susceptibility Testing of Anaerobic Bacteria; Approved Standard-Eighth Edition. CLSI document (2012)”.
The test strains were spread on supplemented Brucella agar (SBA) plates and grown at 36° C. under anaerobic condition for 42 to 48 hours. The test compound dilutions were prepared with Brucella broth and SBA plates containing dilution of test compound were prepared. As an anaerobic growth control, plates not containing the test compound were also prepared. Colonies grown on plates were suspended with Brucella broth to adjust the turbidity to 0.5 McFarland using a densitometer. Suspension (1-2 μL) of the test strains was inoculated onto each agar surface by using a bacterial suspension inoculation apparatus. After anaerobic incubation at 36° C. for 42 to 48 hours, absence and presence of growth of each strain were examined with unaided eye. The MIC was determined at which a marked reduction occurs in the appearance of growth on the test plate as compared to that of growth on the anaerobic control plates.

Data set [6] in a line: Solubility in water (JP1 / JP2 fluids). Type of data set: physicochemical. To be noted: thermodynamic from solid. The method, then:
A 10 mmol/L solution of the test compound was prepared in DMSO and dispensed 100 μL of 10 mmol/L DMSO stock solutions into labeled glass tubes in duplicate, one for Japanese Pharmacopeia First Fluid (JP1) and second for Japanese Pharmacopeia Second Fluid (JP2). After evaporation of DMSO from each tube, 500 μL of JP1 and JP2 fluid were added in each tube, respectively. These tubes were sonicated for 1 minute and placed on shaker for 30 minutes with an interval of 30 seconds at every 5 minute. Tubes were placed in dark at room temperature for 1 hour and solution was filtered through membrane filter. The filtrate was diluted 2-fold and 10-fold. The resulting test solutions was analyzed and quantified against the standards using UPLC (standard preparation—10 mmol/L solution in DMSO is serially diluted with 50% aqueous acetonitrile solution to prepare 2 solutions; 100 μmol/L standard solution and 5 μmol/L standard solutions).

Data set [7] deals with P. acnes IHMA 775486. As to the kind of experiment: Susceptibility of P. acnes, agar dilution MIC. To be noted: Cutibacterium acnes, IHMA775486, anaerobic. Type of data set: cell-based. The method, then: (§1) The antibacterial activity of the compounds of the present invention against P. acnes clinical isolates was tested by the agar dilution method. The assay was carried out according to the CLSI guidelines document (Clinical and Laboratory Standards Institute, 2012 & 2016). The test strains were spread on supplemented Brucella agar (SBA) plates and grown for 42 to 48 hours at 36° C. under anaerobic condition. The test compound dilutions were prepared with Brucella broth and SBA plates containing dilution of test compound were prepared. As an anaerobic growth control and to check the aerobic contamination, plates not containing the test compound were also prepared. Colonies grown on plates were suspended with Brucella broth to adjust the turbidity to 0.5 McFarland using a densitometer. Suspension (1-2 μL) of the test strains was inoculated onto each agar surface by using a bacterial suspension inoculation apparatus (multipoint inoculator). After anaerobic incubation for 42 to 48 hours at 36° C., absence and presence of growth of each strain on growth control plates and test compounds plate were examined with unaided eye. The MIC was determined at which a marked reduction occurs in the appearance of growth on the test plate as compared to that of growth on the anaerobic control plates.

The subject of data set [8] is P. acnes IHMA 103740. As to the kind of experiment: Susceptibility of P. acnes, agar dilution MIC. The format is cell-based. The settings on record: Cutibacterium acnes, IHMA103740, anaerobic. As for the experimental part: as §1
For data set [9], the system named is P. acnes ATCC 6523. As to the kind of experiment: Susceptibility of P. acnes, agar dilution MIC. The format is cell-based. To be noted: Cutibacterium acnes, ATCC6523, anaerobic. The method, then: as §1
Data set [10] concerns P. acnes ATCC 6921. Put plainly: Susceptibility of P. acnes, agar dilution MIC. The format is cell-based. The settings on record: Cutibacterium acnes, ATCC6921, anaerobic. As for the experimental part:
as §1

The nature of data set [11]: Animal infection models (background statement). To be noted: in vivo.
Data set [12] in a line: Solubility for oral absorption (background statement). Type of data set: physicochemical. To be noted: compared to compounds disclosed in this patent application.

Sequence of Clostridium difficile DNA gyrase (Q18C90 entry or part of it): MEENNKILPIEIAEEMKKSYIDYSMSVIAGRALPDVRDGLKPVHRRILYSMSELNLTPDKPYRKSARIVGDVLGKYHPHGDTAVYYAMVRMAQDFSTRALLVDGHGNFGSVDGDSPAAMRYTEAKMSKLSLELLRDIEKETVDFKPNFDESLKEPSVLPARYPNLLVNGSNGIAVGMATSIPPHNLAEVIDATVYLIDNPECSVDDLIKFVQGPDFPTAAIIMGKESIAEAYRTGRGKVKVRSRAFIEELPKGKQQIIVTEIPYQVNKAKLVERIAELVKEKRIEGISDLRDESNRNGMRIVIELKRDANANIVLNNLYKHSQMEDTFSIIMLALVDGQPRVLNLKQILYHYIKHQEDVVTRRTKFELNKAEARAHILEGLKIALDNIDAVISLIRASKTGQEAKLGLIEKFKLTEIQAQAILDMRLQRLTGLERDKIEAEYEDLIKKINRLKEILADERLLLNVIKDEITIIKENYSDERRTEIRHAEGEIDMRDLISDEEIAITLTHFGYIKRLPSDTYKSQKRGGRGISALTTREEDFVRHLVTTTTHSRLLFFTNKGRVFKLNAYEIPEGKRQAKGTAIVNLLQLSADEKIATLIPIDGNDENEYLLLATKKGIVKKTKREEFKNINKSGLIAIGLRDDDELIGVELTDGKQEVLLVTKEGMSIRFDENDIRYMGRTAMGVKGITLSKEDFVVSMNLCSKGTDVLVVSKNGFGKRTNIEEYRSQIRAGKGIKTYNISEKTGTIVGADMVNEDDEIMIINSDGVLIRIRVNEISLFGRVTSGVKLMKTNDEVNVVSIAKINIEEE
Sequence of Clostridium difficile DNA gyrase (Q18C89 entry or part of it): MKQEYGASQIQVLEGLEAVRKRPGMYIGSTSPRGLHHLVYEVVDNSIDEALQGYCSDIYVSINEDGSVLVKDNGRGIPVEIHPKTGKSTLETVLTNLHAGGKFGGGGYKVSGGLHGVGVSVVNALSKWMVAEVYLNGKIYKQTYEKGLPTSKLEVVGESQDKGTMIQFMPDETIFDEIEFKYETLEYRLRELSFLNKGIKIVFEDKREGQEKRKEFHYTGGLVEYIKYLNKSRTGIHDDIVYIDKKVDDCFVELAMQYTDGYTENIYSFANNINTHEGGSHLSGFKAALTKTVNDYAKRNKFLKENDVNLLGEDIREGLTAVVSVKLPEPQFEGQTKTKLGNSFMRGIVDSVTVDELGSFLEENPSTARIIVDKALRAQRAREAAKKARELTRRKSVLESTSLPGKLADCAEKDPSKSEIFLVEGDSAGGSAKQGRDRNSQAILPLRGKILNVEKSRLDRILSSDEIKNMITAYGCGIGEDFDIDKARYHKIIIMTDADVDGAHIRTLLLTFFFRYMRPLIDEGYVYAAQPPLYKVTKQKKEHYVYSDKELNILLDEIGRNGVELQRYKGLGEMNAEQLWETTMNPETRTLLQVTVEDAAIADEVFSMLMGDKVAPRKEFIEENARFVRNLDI

For `CCc1[nH]c(C(=O)N[C@@H]2CCN(c3nnc(C(C)(O)CO)s3)C[C@@H]2OC)nc1Cl` (stereo in doubt) [Compound No. 10, 4-Chloro-N-[(3S,4R)-1-{5-[(2R)-1,2-dihydroxypropan-2-yl]-1,3,4-thiadiazol-2-yl}-3-methoxypiperidin-4-yl]-5-ethyl-1H-imidazole-2-carboxamide], the MIC worked out at 0.125 µg/mL (≈ 0.281 µM) in data set [1]; 1 µg/mL (≈ 2.25 µM) in data set [3]; 0.06 µg/mL (≈ 0.135 µM) in [5]; 0.125 µg/mL (≈ 0.281 µM) in [7]; 0.125 µg/mL (≈ 0.281 µM) in data set [8]; 0.125 µg/mL (≈ 0.281 µM) in data set [9]. The minimum inhibitory concentration (MIC) in [10] came out at 0.125 µg/mL (≈ 0.281 µM). For the same compound, the midpoint of inhibition in data set [2], the IC50, lay at 60.7 nM. Moreover, the “survival on day 35” value in data set [4] came to 100%. The solubility at 30 min is 887 µg/mL (≈ 1990 µM) in data set [6] (Japanese Pharmacopeia First Fluid (JP1), pH 1.2, simulated gastric fluid, read-out: Solubility JP1) and 429 µg/mL (≈ 964 µM) in data set [6] (Japanese Pharmacopeia Second Fluid (JP2), pH 6.8, aqueous buffer, read-out: Solubility JP2).
For the compound `CCO[C@H]1CN(c2nncs2)CC[C@H]1NC(=O)c1nc(Cl)c(CC)[nH]1` [Compound No. 150], the “efficacy in animal infection models” value in data set [11] is listed as “not being efficacious”. In data set [12], the solubility entry was “low”.
